Experimental data: patent US9341627B2, “Protein structural biomarkers to guide targeted chemotherapies” (priority 2009, dated 2016)

Tests used:
[1] = tested on: Eg5 E116, D130 and A133 mutants; settings: all E116, D130 and A133 mutants, to varying degrees
Procedure: (§1) Basal ATPase activities were measured with a coupled enzymatic assay as previously described (29) with 5 μM motor protein and 1 mM MgATP in a SpectraMax 2E spectrophotometer for high-throughput kinetic measurements as previously described (30). […] Reactions used for calculation of the IC50 values contained between 5 and 22.5 mM NaCl. Data were reproducible with protein samples purified from differing batches of cultured cells from two different laboratories.

[2] = target: T1, wildtype Eg5 kinesin motor domain (Homo sapiens, UniProt P52732); experiment: In vitro basal ATPase assay (coupled enzymatic), wildtype Eg5; assay type: biochemical; settings: 5 μM motor protein, 1 mM MgATP, 5-22.5 mM NaCl, read-out: IC50, basal ATP hydrolysis
T1 sequence (P52732 1-370): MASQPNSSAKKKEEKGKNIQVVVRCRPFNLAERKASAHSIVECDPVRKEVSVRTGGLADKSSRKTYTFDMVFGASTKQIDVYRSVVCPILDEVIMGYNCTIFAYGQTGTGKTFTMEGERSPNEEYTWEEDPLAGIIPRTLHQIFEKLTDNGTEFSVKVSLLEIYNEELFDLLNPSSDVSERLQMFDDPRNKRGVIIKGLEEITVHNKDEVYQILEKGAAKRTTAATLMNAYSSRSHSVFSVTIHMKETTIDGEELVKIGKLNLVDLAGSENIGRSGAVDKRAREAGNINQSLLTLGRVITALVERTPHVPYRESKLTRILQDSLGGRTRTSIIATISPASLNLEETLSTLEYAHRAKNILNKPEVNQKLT
Procedure: as §1

With `N[C@@H](CSC(c1ccccc1)(c1ccccc1)c1ccccc1)C(=O)O` [STC, S-trityl-L-cysteine] the “sensitivity of mutants to inhibitor” value [1] was “reduced sensitivity”.
For `CCOC(=O)C1=C(C)NC(=S)NC1c1cccc(O)c1` (centres unmarked) [monastrol], the IC50 [2] was 8 µM.
